Data from paper PMC11219860, “A chemogenetic approach for dopamine imaging with tunable sensitivity” (Nature Communications, 2024).

Experiments:
[1] = test system: dLight1.3b-expressing HEK293T sniffer cells on primary DArgic neurons; assay: DA release imaging from cultured DArgic neurons with dLight1.3b sniffer cells; format: cell-based, mouse; details: DETQ 200 nM added to 4-AP perfusion
Procedure: Primary DA (DA) neurons were grown on a layer of cortical astrocytes. The astrocytes were first prepared from P0-P2 C57BL6 mice, grown in T75 flask and then seeded on collagen/poly-L-lysine coated 15 mm glass coverslips at a concentration of 100,000 cells/ml. The cells were allowed to grow until close to confluence before the seeding of neurons. Primary DArgic neurons were prepared and cultured from P0-P2 mouse pups using a previously described protocol. Briefly, the ventral midbrain of P0-P2 pups was dissected from DAT^IREScre x Ai9 mice in which DA neurons expressed the red fluorescent protein tdTomato. These were produced by crossing DAT^IREScre mice (catalog #006660, Jackson Labs[31]) to Ai9/tdTomato mice (catalog #007905, Jackson Labs[32]). Both of these lines were on a C57BL/6 J background. Midbrain cells were seeded at a concentration of 240,000 cells/ml on top of the astrocyte monolayer and allowed to grow for 10 days (10 DIV). Two days before imaging, expression of dLight1.3b was induced in stable HEK cells with doxycycline. One day prior to imaging, HEK cells were lifted using trypsin, and 150,000 HEK cells were seeded on top of 10 DIV-cultured neurons in doxycycline-supplemented neuronal medium. Imaging was performed on a confocal microscope (Nikon A1 HD25) using a 40X dry objective and a 488 nm laser to excite dLight1.3b and a 546 nm laser to activate tdTomato and identify DA neurons. On the day of imaging, physiological saline containing drugs at the specified concentration ([…], Sigma; SCH23390, Sigma; DETQ, Enamine) were applied on the culture using a computer-controlled perfusion system (Automate system). A field containing one or more DA neurons was selected based on the tdTomato signal. […]
Event detection was performed using a thresholding algorithm adapted from[80]. In brief, the recorded field of view was divided into square ROIs of 55 um x 55 um size. […] A rolling standard deviation was calculated with the same window size. Events were defined as timepoints at which the fluorescence intensity reading exceeds the averaged intensity by 5 standard deviations.

dLight1.3b = assay: Two-photon dLight1.3b imaging in acute brain slices; design: species or system mouse
Procedure: Coronal brain slices (240 µm) containing the striatum and PFC were prepared from AAV-injected mice after 3–4 weeks of viral expression. Briefly, mice were deeply anesthetized with isoflurane and trans-cardially perfused with ice-cold cutting solution containing (in mM): 75 NaCl, 50 sucrose, 6 MgCl2, 2.5 KCl, 1.2 NaH2PO4, 0.1 CaCl2, 25 NaHCO3, and 2.5 D-glucose (bubbled with 5% CO2 in O2). The brain was quickly removed and sectioned using a vibrating blade microtome (VT1200S; Leica) before slices were transferred to an incubation chamber filled with artificial cerebrospinal fluid (ACSF) containing (in mM): 126 NaCl, 2.5 KCl, 1.2 MgCl2, 1.2 NaH2PO4, 2.5 CaCl2, 21.4 NaHCO3, 11.1 D-glucose and 10 µM MK-801 (34 °C, bubbled with 5% CO2 in O2, pH 7.4). After 45 min equilibration, slices were individually transferred to a recording chamber for 2 P imaging. NMDA, AMPA, GABA-A, nicotinic, and muscarinic receptors were blocked using 10 µM MK801, 10 µM DNQX, 100 µM picrotoxin, 1 µM DHBE, and 0.3 µM scopolamine, respectively. Changes of dLight fluorescence were measured by 2 P laser scanning microscopy, using a custom-built BX51WI microscope (Olympus). Excitation (920 nm) was provided by a pulsed Ti:Sapphire laser (Chameleon Ultra I; Coherent) and scanned using a pair of X-Y galvanometer mirrors (6215; Cambridge Technology). Emission was collected by a water immersion objective (60x, N.A. 1.00; Olympus) and filtered (ET680sp and ET525/50m-2P; Chroma) before detection by GaAsP photomultiplier tube (PMT, H10770PA-40; Hamamatsu). The temporal kinetics of fluorescence changes were captured using fast acquisition speed (2 kHz), ‘spot photometry’ (Toronado; B.W. Strowbridge), by scanning the laser around a circular path ([…] diameter) centered at the tip of the stimulating electrode or iontophoresis pipette which was visualized in the red channel (ET620/60 m; Chroma). The spatial dynamics of dLight fluorescence were captured by rasterized movie acquisition (30 × 40 µm, 3 Hz) and analyzed using ImageJ. Exogenous DA was applied by iontophoresis, using a thin-walled glass pipette filled with DA (1 M) and sulforhodamine 101 (300 µM), and ejected by short pulses of positive current ( + 20 to +200 nA, 5 ms) with a negative retention current to prevent DA leakage (−10 to −15 nA). Endogenous DA release was evoked by electrical stimulation using a double-tipped electrode pulled from septum theta glass capillaries (WPI), visualized with sulforhodamine 101 (10 µM). A single pulse (10 µA, 0.5 ms) was used to evoke DA release in striatal slices, while a train of stimuli (5 × 20 µA at 25 Hz) was used in cortical slices. Changes of fluorescence are expressed as ∆F/F0, wherein baseline fluorescence (F0) was measured from the 300 ms before DA stimulation in spot photometry measurements, or defined as the average of 10 frames preceding stimulation in rasterized movies. Peak ∆F/F0 was calculated by maximum peak detection from the time period following stimulation ( ~ 500 ms) or from the rasterized frame immediately following stimulation. Data were analyzed in AxoGraph (J. Clements) and ImageJ.

## C[C@H]1c2cccc(C(C)(C)O)c2C[C@H](CO)N1C(=O)Cc1c(Cl)cccc1Cl [DETQ, 2-(2,6-dichlorophenyl)-1-((1S,3R)-3-(hydroxymethyl)-5-(2-hydroxypropan-2-yl)-1-methyl-3,4-dihydroisoquinolin-2(1H)-yl)ethan-1-one]
[1]
  number of detected phasic DA release events: increased
  sensor baseline signal (tonic DA): long-lasting increase
dLight1.3b; 5 × 20 µA, 0.5 ms, 25 Hz, DETQ
  fluorescence changes evoked by train of stimuli in PFC slices: unmask small increases
dLight1.3b; DA iontophoresis 20 nA, DETQ 200 nM
  area of dLight1.3b ∆F/F0 >2σ noise: significantly increased
dLight1.3b; dorsal striatum slices, 10 µA, 0.5 ms, DETQ
  peak ∆F/F0 and area (>2σ noise) evoked by single electrical stimulation: significantly enhanced
dLight1.3b; ejection current 50 nA, DETQ 200 nM
  decay time of fluorescence changes (spot photometry): slowed
dLight1.3b; striatal slices, DA iontophoresis, DETQ 200 nM
  increase of dLight sensitivity (peak ∆F/F0 over ejection currents): 2.6 fold
